Laboratory results reported in ChEMBL document CHEMBL1201862, “PubChem BioAssay data set” (2004).
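Interpolation was linear, between the two tested concentrations surrounding the appropriate level; five concentrations were tested over 48 hours in 96-well plates. At the GI50, growth is halved.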 The source made the active and inactive calls. Cut-off read from the data, not from the text of the source: active = GI50 up to about 1.1 µM and inactive = higher. Peptide text beside a SMILES is read from it. * marks the point of attachment. Cbz = O=C(OCc1ccccc1)*

Experiments:
Assay in all cases: growth of human tumour cells (NCI), 48 h
A549 = tested on: A549
BT-549 = tested on: BT-549
COLO 205 = tested on: COLO 205
DU-145 = tested on: DU-145
HCC 2998 = tested on: HCC 2998
HCT-15 = tested on: HCT-15
K562 = tested on: K562
MCF7 = tested on: MCF7
MOLT-4 = tested on: MOLT-4
NCI-H23 = tested on: NCI-H23
NCI-H460 = tested on: NCI-H460
NCI-H522 = tested on: NCI-H522
OVCAR-3 = tested on: OVCAR-3
OVCAR-4 = tested on: OVCAR-4
OVCAR-8 = tested on: OVCAR-8
RPMI-8226 = tested on: RPMI-8226
SF-268 = tested on: SF-268
SK-OV-3 = tested on: SK-OV-3
T47D = tested on: T47D
UACC-62 = tested on: UACC-62

C=CC(Br)(CBr)CCC(Br)C(C)(C)Cl (stereo not given)
GI50 (A549): 11.5 µM (inactive)
GI50 (BT-549): 6.52 µM (inactive)
GI50 (COLO 205): 2.21 µM (inactive)
GI50 (DU-145): 3.37 µM (inactive)
GI50 (HCC 2998): 6.22 µM (inactive)
GI50 (HCT-15): 2.58 µM
GI50 (K562): 1.75 µM (inactive)
GI50 (MCF7): 1.83 µM (inactive)
GI50 (MOLT-4): 0.555 µM (active)
GI50 (NCI-H23): 6.31 µM (inactive)
GI50 (NCI-H460): 2.21 µM (inactive)
GI50 (NCI-H522): 1.38 µM (inactive)
GI50 (OVCAR-3): 2.23 µM (inactive)
GI50 (OVCAR-4): 4.08 µM (inactive)
GI50 (OVCAR-8): 4.42 µM (inactive)
GI50 (RPMI-8226): 0.579 µM (active)
GI50 (SF-268): 2.02 µM (inactive)
GI50 (SK-OV-3): 16.3 µM (inactive)
GI50 (T47D): 1.67 µM (inactive)
GI50 (UACC-62): 4.78 µM (inactive)

N=C(N)c1ccc(/N=N\c2c(O)c(C(=O)Nc3ccccc3)cc3ccccc23)cc1
GI50 (A549): > 59.6 µM (inactive)
GI50 (BT-549): 46 µM (inactive)
GI50 (COLO 205): 29 µM (inactive)
GI50 (DU-145): > 100 µM (inactive)
GI50 (HCC 2998): > 37.6 µM (inactive)
GI50 (HCT-15): 18.1 µM
GI50 (K562): 7.08 µM (inactive)
GI50 (MCF7): 9.86 µM (inactive)
GI50 (MOLT-4): 2.58 µM (inactive)
GI50 (NCI-H23): 21.9 µM (inactive)
GI50 (NCI-H460): 24.8 µM (inactive)
GI50 (NCI-H522): 10.1 µM (inactive)
GI50 (OVCAR-3): 32.7 µM (inactive)
GI50 (OVCAR-4): 17.8 µM (inactive)
GI50 (OVCAR-8): 16.1 µM (inactive)
GI50 (RPMI-8226): 4.6 µM (inactive)
GI50 (SF-268): 19.9 µM (inactive)
GI50 (SK-OV-3): > 32.6 µM (inactive)
GI50 (T47D): 17.4 µM (inactive)
GI50 (UACC-62): > 87.5 µM (inactive)

O=C(C/N=C(\CN(c1ccccc1)c1ccccc1)Oc1c(Cl)cc(Cl)cc1Cl)n1cnc2ccccc21
GI50 (A549): > 100 µM (inactive)
GI50 (BT-549): 22.6 µM (inactive)
GI50 (COLO 205): > 100 µM (inactive)
GI50 (DU-145): > 100 µM (inactive)
GI50 (HCC 2998): 71.6 µM (inactive)
GI50 (HCT-15): 43.8 µM
GI50 (K562): 80.7 µM (inactive)
GI50 (MCF7): 71 µM (inactive)
GI50 (MOLT-4): 18.1 µM (inactive)
GI50 (NCI-H23): > 100 µM (inactive)
GI50 (NCI-H460): > 100 µM (inactive)
GI50 (NCI-H522): 84.1 µM (inactive)
GI50 (OVCAR-3): 32.5 µM (inactive)
GI50 (OVCAR-4): > 100 µM (inactive)
GI50 (OVCAR-8): 35.3 µM (inactive)
GI50 (RPMI-8226): 44.6 µM (inactive)
GI50 (SF-268): > 100 µM (inactive)
GI50 (SK-OV-3): > 100 µM (inactive)
GI50 (T47D): 33.3 µM (inactive)
GI50 (UACC-62): 32.3 µM (inactive)

O=C(c1ccco1)N(Cc1ccco1)C(=S)Nc1ccccc1
GI50 (A549): 29.7 µM (inactive)
GI50 (BT-549): 17.2 µM (inactive)
GI50 (COLO 205): 12.9 µM (inactive)
GI50 (DU-145): 33.2 µM (inactive)
GI50 (HCC 2998): 33.1 µM (inactive)
GI50 (HCT-15): 9.2 µM
GI50 (K562): 3.33 µM (inactive)
GI50 (MCF7): 4.2 µM (inactive)
GI50 (MOLT-4): 7.08 µM (inactive)
GI50 (NCI-H23): 13.5 µM (inactive)
GI50 (NCI-H460): 49.1 µM (inactive)
GI50 (NCI-H522): 16.9 µM (inactive)
GI50 (OVCAR-3): 15.7 µM (inactive)
GI50 (OVCAR-4): 25.6 µM (inactive)
GI50 (OVCAR-8): 19 µM (inactive)
GI50 (RPMI-8226): 3.1 µM (inactive)
GI50 (SF-268): 20.2 µM (inactive)
GI50 (SK-OV-3): > 100 µM (inactive)
GI50 (T47D): 14.1 µM (inactive)
GI50 (UACC-62): 14.1 µM (inactive)

O=C(O)CCC(NC(=O)OCc1ccccc1)C(=O)NC(Cc1c[nH]cn1)C(=O)O (stereo not drawn) (Cbz-Glu-His-OH; configuration not given here)
GI50 (A549): > 100 µM (inactive)
GI50 (BT-549): > 100 µM (inactive)
GI50 (COLO 205): > 100 µM (inactive)
GI50 (DU-145): > 100 µM (inactive)
GI50 (HCC 2998): > 100 µM (inactive)
GI50 (HCT-15): > 100 µM
GI50 (K562): > 100 µM (inactive)
GI50 (MCF7): > 100 µM (inactive)
GI50 (MOLT-4): > 100 µM (inactive)
GI50 (NCI-H23): > 100 µM (inactive)
GI50 (NCI-H460): > 100 µM (inactive)
GI50 (NCI-H522): > 100 µM (inactive)
GI50 (OVCAR-3): > 100 µM (inactive)
GI50 (OVCAR-4): > 100 µM (inactive)
GI50 (OVCAR-8): > 100 µM (inactive)
GI50 (RPMI-8226): > 100 µM (inactive)
GI50 (SF-268): > 100 µM (inactive)
GI50 (SK-OV-3): > 100 µM (inactive)
GI50 (T47D): > 100 µM (inactive)
GI50 (UACC-62): > 100 µM (inactive)

CC1=C(/C=C/C(C)=C/C=C/C(C)=C/C(=O)Nc2ccc(O)cc2)C(C)(C)CCC1 [FENRETINIDE]
GI50 (A549): 5.97 µM (inactive)
GI50 (BT-549): 6.52 µM (inactive)
GI50 (COLO 205): 2.61 µM (inactive)
GI50 (DU-145): 7.6 µM (inactive)
GI50 (HCC 2998): 4.16 µM (inactive)
GI50 (HCT-15): 5.92 µM
GI50 (K562): 2.69 µM (inactive)
GI50 (MCF7): 2.65 µM (inactive)
GI50 (MOLT-4): 1.11 µM (active)
GI50 (NCI-H23): 2.06 µM (inactive)
GI50 (NCI-H460): 4.63 µM (inactive)
GI50 (NCI-H522): 0.929 µM (active)
GI50 (OVCAR-3): 2.55 µM (inactive)
GI50 (OVCAR-4): 3.94 µM (inactive)
GI50 (OVCAR-8): 3.61 µM (inactive)
GI50 (RPMI-8226): 1.65 µM (inactive)
GI50 (SF-268): 3.52 µM (inactive)
GI50 (SK-OV-3): 6.68 µM (inactive)
GI50 (T47D): 2.7 µM (inactive)
GI50 (UACC-62): 2.12 µM (inactive)

CC(Cc1ccc(O)c(O)c1)C(C)Cc1ccc(O)c(O)c1 (stereo not given) [NORDIHYDROGUAIARETIC ACID]
GI50 (A549): 33 µM (inactive)
GI50 (BT-549): 13.9 µM (inactive)
GI50 (COLO 205): 18.7 µM (inactive)
GI50 (DU-145): 18.8 µM (inactive)
GI50 (HCC 2998): 19.1 µM (inactive)
GI50 (HCT-15): > 38.9 µM
GI50 (K562): 25.4 µM (inactive)
GI50 (MCF7): 20.2 µM (inactive)
GI50 (MOLT-4): 8.22 µM (inactive)
GI50 (NCI-H23): 20.1 µM (inactive)
GI50 (NCI-H460): 16.7 µM (inactive)
GI50 (NCI-H522): 2.03 µM (inactive)
GI50 (OVCAR-3): 13.7 µM (inactive)
GI50 (OVCAR-4): 14.4 µM (inactive)
GI50 (OVCAR-8): 17.4 µM (inactive)
GI50 (RPMI-8226): 10.1 µM (inactive)
GI50 (SF-268): 16.3 µM (inactive)
GI50 (SK-OV-3): 21.5 µM (inactive)
GI50 (T47D): 18.4 µM (inactive)
GI50 (UACC-62): 16 µM (inactive)
